Results published in patent US20230303504A1, “CRYSTALLINE SALTS OF TIZOXANIDE AND 2-HYDROXY-N-(5-CHLORO-1,3-THIAZOL-2-YL)BENZAMIDE (RM-4848) WITH ETHANOLAMINE, MORPHOLINE, PROPANOLAMINE, PIPERAZINE AND N-METHYLPIPERAZINE” (priority 2020, published 2023).
Structures can show the parent of a compound that is named as a salt.

Experiments:
physchem [1] = assay type: physicochemical
Source text: The appropriate amine is heated with an equimolar amount of either tizoxanide or RM4848 in methanol until a clear solution is obtained. Any small amounts of undissolved solid are removed by filtration. On cooling, the desired salt may crystallize immediately; addition of an equal volume of a solvent, such as diethyl ether (for the tizoxanide salts) or concentration to a small volume, then addition of excess ether (for salts of RM4848), may be used to obtain solid products. In general the salts of RM4848 are more soluble under the above conditions. All the salts are more soluble in water than the parent thiazolides.
The resulting slurry was filtered without issues; the filtration went easy on a glass sintered funnel. The cake was washed with water (3×2 Veq) and methanol (3×2 Veq). Combining the neutralization step and aqueous washings provide that no HCl remains in the cake. Avoiding residual HCl in the product may be important because it could react with ethanolamine during step 2. Washing the cake with methanol allows for the removal of water. […] This way no Tizoxanide is lost during the washing of the cake; nevertheless, the remaining NTZA is not removed either.
RM5071 is not soluble in ethyl acetate, but it tends to form a sticky material. This was also observed during a test reaction in pure ethyl acetate. In addition, it was observed that RM5071 is almost soluble in methanol at a concentration of 5 mg/mL.

[2] = Bioavailability pharmacokinetic study, single oral gavage dose in rats; assay type: in vivo, Sprague-Dawley rats; details: for maximum concentrations (Cmax) of T (medians): both, Sprague-Dawley
Description: A study was conducted to evaluate the bioavailability of tizoxanide (T) and tizoxanide glucuronide (TG) in plasma following oral administration of a single dose of 90 mg/kg RM-5071, RM-5072 and nitazoxanide by oral gavage to four male and four female Sprague-Dawley rats. Plasma samples were collected at 0.083, 0.167, 0.25, 0.5 1, 2, 6, 12 and 24-hours post-dose. Concentrations of T and TG were determined using mass spectrometry. […] These compounds are rapidly absorbed achieving Cmax within 5 minutes after an oral dose.
Animals and treatment. Three groups of four male and four female Sprague-Dawley rats were administered RM-5071, RM-5072 or NTZ as a single oral gavage dose as detailed in the table below:
Nine serial blood samples were obtained from each animal at 0.083, 0.167, 0.25, 0.5 1, 2, 6, 12 and 24-hours post-dose. Derived plasma samples were stored in sodium heparinized tubes at −70° C. or lower until they were shipped on dry ice via overnight courier for analysis of T and TG concentrations by mass spectrometry.
Because some animals glucurono-conjugate T faster than others, the extent, rate and variability of absorption of these three compounds using the sum of free and glucurono-conjugated T concentrations at each timepoint were evaluated. To arrive at the concentrations of glucurono-conjugated T, TG concentrations were multiplied by 61% (molecular weight of T=270 divided by molecular weight of TG=441).

[3] = in vivo; cited from earlier work
physchem [4] = assay type: physicochemical; details: for solubility: thermodynamic from solid
Description: The apparent solubility of RM-5071 was tested using several solvents, specifically: DMF, DMSO, acetonitrile (ACN), water, ACN/water mixture, methanol, isopropanol, and ethanol. United States Pharmacopeia (USP) classify the solubility regardless of the solvent used, just following defined criteria summarized in Table 10. The solute was initially dissolved in each of the solvents or solvent system at a lmg/mL concentration. If solute remained undissolved, a fresh solution of lower concentration was subsequently prepared until the solid was observed completely dissolved. This concentration limit was estimated as the apparent solubility.
The solutions of RM-5071 were prepared, dissolving 10 mg in increasing solvent volumes ranging from 10 mL, 100 mL, to 1000 mL in each of the solvents. According to the visual inspection and observations the apparent solubility of RM-5071 was classified according the 10, as defined by the USP.
The solubility studies of RM-5071 were performed in several solvents as specified on Table 11 at room temperature. For the purpose of this chemical characterization report, the terms specified on Table 10 were used to describe the solubility of RM 5071 in different solvents on Table 12

physchem [5] = assay type: physicochemical; remark: listed apart in the source
Description: The acid titration was performed by adding 20 mL of a 1 mg/mL RM-5071 solution poured onto a beaker (titrate), the pH of the solution was measured while using a solution of 0.01N HCl as the titrant. The alkaline titration was performed by adding 20 mL of a 1 mg/mL RM-5071 solution were poured onto a beaker, the pH of the solution was measured while adding a solution 0.02 N NaOH as the titrant. The solutions had agitation with a magnetic stirrer during titration and it was stopped during pH measurements.
The inflection point was calculated using the second derivative of the experimental curve, the volume for the equivalence point is 5.83 mL of 0.01 N HCl, at a pH =5.99. […] The pKa of a phenolic proton is 9.9 as per Vollhardt, K. P. C.; Schore, N. E., Organic Chemistry; Palgrave Version: Structure and Function. Macmillan International Higher Education: 2014.

[6] = Thermogravimetric analysis (TGA); assay type: physicochemical
Source text: Thermogravimetric analysis (TGA) is an analytical technique used to determine the thermal stability of a material and its fraction of volatile components by monitoring the weight change that occurs as a substance is heated. As many weight loss curves look similar, the curves may require transformation before results may be interpreted. A derivative weight loss curve can be used to tell the point at which weight loss is most apparent. The analysis is normally carried out in air or in an inert atmosphere such as nitrogen.
For the TGA analysis, amounts between 2.0 to 2.6 mg of both RM-5071 and desacetyl-NTZA samples were placed individually in platinum pans. The temperature method was: step 1: equilibrate at 25° C., step 2: heat from 25° C. to 700° C. at 10.00° C./min, step 3: hold for 5 min at 700° C. The analyses were carried out under nitrogen.

[7] = Differential scanning calorimetry (DSC); assay type: physicochemical; details: 10 °C/min under nitrogen; irreversible for RM-5071
Description: Differential scanning calorimetry (DSC) is a thermo-analytical technique in which the difference in the amount of heat required to increase the temperature of a sample versus a reference are measured as a function of temperature. The reference sample should have a well-defined heat capacity over the range of temperatures to be scanned. One application of DSC is studying phase transitions, such as melting, glass transitions, and/or exothermic decompositions. Such measurements provide qualitative and quantitative information about physical and chemical changes of a molecule.
The calorimetric analysis was performed by the MCC. For the DSC analysis, amounts between 2.34 to 2.46 mg of the samples RM-5071 and desacetyl-NTZA were placed individually in aluminum hermetic pans and covered with an aluminum lid. The temperature method was: step 1: hold for 10 min at 25° C., and step 2: heat from 25° C. to 400 at 10.00 ° C./min. An additional DSC experiment was performed to determine further crystallinity behavior by performing a heat-cool-heat cycling experiment to RM-5071. Approximately 1.69 mg of the RM-5071sample was placed in an aluminum hermetic pan and covered with an aluminum lid. […]

[8] = XRD temperature test (oven heating, then XRD); assay type: physicochemical
Description: A temperature test was performed in order to determine if any physical and crystallinity changes occurred to the sample RM-5071 upon heating.In order to assess if any change occurred two set of experiments were performed as follows: Experiment A- Two petri dishes were identified as “Fast” and “Slow”. To each petri dish, approximately 2 spatulas of sample RM-5071 were added. Then, the oven was turned on and set to a temperature of-160-165° C. After reaching the temperature, the petri dishes were placed in the oven for 15 minutes. Once the time was completed, the oven was turned off and the “Fast” sample was removed and left to reach room temperature (RT) in the hood. The “Slow” sample was left in the oven to reach RT in a slower manner. The “Slow” sample was removed from the oven, once it reached RT. The samples were analyzed by XRD. Experiment B- The procedure described above was followed at a temperature range of ˜110-120° C. After reaching the temperature, the petri dishes were placed in the oven during 10 minutes. The removal of samples from the oven was followed as previosly described. Afterwards, the samples were analyzed by XRD.

[9] = single 90 mg/kg oral gavage, 4 male and 4 female rats per group
[10] = single 90 mg/kg oral gavage, rats

For `O=C(Nc1ncc([N+](=O)[O-])s1)c1ccccc1O` [Desacetyl-NTZA, 2-Hydroxybenzoyl-N-[(5-nitro)thiazol-2-yl]amide], the solubility in methanol (physchem [1]) was “fairly insoluble” and the solubility in water (physchem [1]) was “fairly insoluble”.

With `CC(=O)Oc1ccccc1C(=O)Nc1ncc([N+](=O)[O-])s1` [NTZ, 2-(acetolyloxy)-N-(5-nitro-2-thiazolyl) benzamide, reference compound] the “maximum concentrations (Cmax) of T (medians)” value (shortened to “maximum concentrations (Cmax)”) ([2]; rat, in vivo, po, 90 mg/kg) was 1.7 µg/mL, the adverse clinical signs ([2]; rat, in vivo, po, 90 mg/kg) was “No adverse clinical signs were observed” and the “time at which Cmax of T was achieved” value ([2]; rat, in vivo, po, 90 mg/kg) was 2 h. The solubility in methanol (physchem [1]) was “fairly insoluble”, the solubility in water (physchem [1]) was “fairly insoluble” and the plasma half-life [3] was 1.3 h.

In the case of `O=C(Nc1ncc([N+](=O)[O-])s1)c1ccccc1O` [RM-5072, 2-Hydroxybenzoyl-N-[(5-Nitro)Thiazol-2-yl]Amide, Morpholine Salt], the “maximum concentrations (Cmax)” value ([2]; rat, in vivo, po, 90 mg/kg) is reported as 3.1 µg/mL, the adverse clinical signs [2, 9] is reported as “No adverse clinical signs were observed” and the “speed of availability of T in plasma compared to NTZ” value [2, 10] is reported as “dramatically improve”.

For `O=C(Nc1ncc([N+](=O)[O-])s1)c1ccccc1O` [RM-5071, 2-Hydroxybenzoyl-N-[(5-Nitro)Thiazol-2-yl]Amide, Ethanolamine Salt], the “maximum concentrations (Cmax)” value ([2]; rat, in vivo, po, 90 mg/kg) was 4.7 µg/mL, the “bioavailability in terms of the maximum concentration compared to NTZA” value ([2]; rat, in vivo) was “more bioavailable” and the “mean AUC0-12h relative to NTZ” value ([2]; rat, in vivo) was “roughly the same”. The “mean AUC0-12h relative to RM-5072” value ([2]; rat, in vivo) was “almost double”, the adverse clinical signs [2, 9] was “No adverse clinical signs were observed” and the “plasma concentrations of T and TG (free and glucurono-conjugated T) compared to RM-5072 or NTZ” value [2, 10] was “higher”. The “speed of availability of T in plasma compared to NTZ” value [2, 10] was “dramatically improve”, the “variability of absorption compared to RM-5072 or NTZ” value [2, 10] was “less variability” and the Apparent solubility (physchem [4]) was “very soluble”. The solubility (physchem [4]; aqueous with cosolvent or surfactant or cyclodextrin, Apparent Solubility of RM-5071) was over 1000 µg/mL, the solubility (physchem [4]; aqueous with cosolvent or surfactant or cyclodextrin, Apparent Solubility of RM-5071 (concentration limit)) was over 1000 µg/mL and the solubility (physchem [4]; organic solvent or mixture, Apparent Solubility of RM-5071 (concentration limit)) was 33 µg/mL. For the same compound, the solubility (physchem [4]; water, Apparent Solubility of RM-5071 (concentration limit)) was under 5 µg/mL, the “solubility in ethyl acetate” value (physchem [1]) was “not soluble” and the solubility (physchem [1]; organic solvent or mixture) was about 5000 µg/mL. For the same compound, the pKa (physchem [5]) was 8.8, the pH of solution (physchem [5]; 1 mg/mL RM-5071 solution, initial) was 9.44 and the “pH at which full dissolution of the solid is achieved” value (physchem [5]; 1 mg/mL, titration with NaOH) was 10.63. The “First step Temperature (° C.)” value ([6]; 10 °C/min under nitrogen) was 85-160 °C, the “Second step Temperature(° C.)” value ([6]; 10 °C/min under nitrogen) was 160-254 °C and the “Second step Weight loss (%)” value ([6]; 10 °C/min under nitrogen) was 30.93%. For the same compound, the “Third step Temperature(° C.)” value ([6]; 10 °C/min under nitrogen) was 254-700 °C, the “Third step Weight loss (%)” value ([6]; 10 °C/min under nitrogen) was 26.62% and the total weight loss ([6]; 25 to 700 °C under nitrogen) was 77%. The “DSC peak transition temperature (exothermic; solid stable up to)” value [7] was 163 °C, the “physical and crystallinity changes upon heating” value ([8]; Experiment A: 160-165° C., 15 minutes) was “changed from bright yellow to a black powder with beige portions” and the “physical and crystallinity changes upon heating” value ([8]; Experiment B: 110-120° C., 10 minutes) was “does not change significantly”.
